Tested on: extracted incisor tooth
Experiment: Tooth-whitening effect on extracted incisor tooth, images before and after treatment
Conditions: 2 minutes pre-conditioning with solution, no remineralising agent
From the text: This image was taken prior to any treatment being carried out.
The dark discolourations in the enamel of the crown of the tooth adjacent to the cavity have also disappeared.

SMILES: OCl [hypochlorite, sodium hypochlorite]
- tooth discolouration, difference versus before treatment: very little difference
